Source: ChEMBL document CHEMBL1140643, “Synthesis of 4-phenoxybenzamide adenine dinucleotide as NAD analogue with inhibitory activity against enoyl-ACP reductase (InhA) of Mycobacterium tuberculosis” (Bioorg Med Chem Lett, 2007)

Columns and labels:
[1] = molecular target: T1, Enoyl-[acyl-carrier-protein] reductase [NADH] (Mycobacterium tuberculosis) (UniProt P9WGR1); assay: Inhibition of Mycobacterium tuberculosis InhA at 100 uM
T1 sequence (whole entry): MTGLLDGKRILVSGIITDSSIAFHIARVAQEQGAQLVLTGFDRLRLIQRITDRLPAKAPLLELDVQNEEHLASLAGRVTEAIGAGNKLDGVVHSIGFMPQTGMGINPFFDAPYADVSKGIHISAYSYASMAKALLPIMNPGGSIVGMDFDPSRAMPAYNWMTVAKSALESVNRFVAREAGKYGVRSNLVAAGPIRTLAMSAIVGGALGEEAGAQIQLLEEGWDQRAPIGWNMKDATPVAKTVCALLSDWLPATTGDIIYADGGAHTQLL

[2] = molecular target: T1, Enoyl-[acyl-carrier-protein] reductase [NADH] (Mycobacterium tuberculosis); assay: Inhibition of Mycobacterium tuberculosis InhA at 700 uM
[3] = molecular target: T2, Enoyl-[acyl-carrier-protein] reductase [NADH] (Mycobacterium tuberculosis, UniProt P9WGR1); assay: Inhibition of Mycobacterium tuberculosis InhA
T2 sequence (P9WGR1 whole entry): T1 sequence (whole entry)

Q: `NC(=O)c1cc([C@@H]2O[C@H](COP(=O)(O)O)[C@@H](O)[C@H]2O)ccc1Oc1ccccc1` was tested. Which inhibition [1] did it give?
A: Its inhibition is 12%.

Q: With `NC(=O)c1cc([C@@H]2O[C@H](CO)[C@@H](O)[C@H]2O)ccc1Oc1ccccc1` as the molecule, how does the inhibition [2] read?
A: The inhibition was 25%.

Q: `NC(=O)c1cc([C@@H]2O[C@H](COP(=O)(O)OP(=O)(O)OC[C@H]3O[C@@H](n4cnc5c(N)ncnc54)[C@H](O)[C@@H]3O)[C@@H](O)[C@H]2O)ccc1Oc1ccccc1` was tested. Which IC50 [3] did it give?
A: The IC50 was 27 µM.
